According to patent US20110038867A1, “REMEDIES FOR PEMPHIGUS CONTAINING ANTI FAS LIGAND ANTIBODIES” (priority 2007, published 2011):
Peptide text beside a SMILES is read from it. * marks the point of attachment. Cbz = O=C(OCc1ccccc1)*; CH2F = FC*

B1: FasL: recombinant Fas ligand added to keratinocyte cultures (protein, UniProt P48023 130-281, looked up)
Tumor necrosis factor ligand …: QIGHPSPPPEKKELRKVAHLTGKSNSRSMPLEWEDTYGIVLLSGVKYKKGGLVINETGLYFVYSKVYFRGQSCNNLPLSHKVYMRNSKYPQDLVMMEGKMMSYCTTGQMWARSSYLGAVFNLTSADHLYVNVSELSLVNFEESQTFFGLYKL

Tests used:
keratinocytes [1] = assay: Pemphigus sera-induced Dsg3 cleavage and caspase-8 activation in confluent keratinocytes, Western blotting; assay type: cell-based, human; conditions: pretreatment with Z-IETD-FMK (100 μM for 30 min) or NOK2 15 μg/ml, then sera 72 hrs; FIG. 12A
Method: To investigate whether the extrinsic apoptotic pathway is responsible for dsg cleavage, we pretreated confluent keratinocytes with caspase-8 inhibitor Z-IETD-FMK (100 μM for 30 min) or with anti-FasL (NOK2, 15 μg/ml) Ab. Then cells were incubated for 72 hrs with healthy or untreated pemphigus sera. Protein extracts from the culture were analyzed by Western blotting using anti-Dsg3 antibodies and anti-caspase-8 Ab. Vinculin was used as internal control. (FIG. 12A).

keratinocytes [2] = assay: Pemphigus sera-induced cell detachment (acantholysis) of confluent keratinocytes; assay type: cell-based, human; conditions: pretreatment with Z-IETD-FMK (100 μM for 30 min) or NOK2 15 μg/ml, then sera 72 hrs; FIG. 12B
human keratinocytes = assay: Pemphigus sera-induced keratinocyte apoptosis, TUNEL staining; assay type: cell-based; conditions: sera pretreated with anti-FasL neutralizing antibody (2.5 mg per ml for 30 min) or Z-IETD-FMK (100 μM for 30 min); FIG. 6
Method: As apoptotic keratinocytes are abundantly expressed in pemphigus, we wanted to explore whether pemphigus sera are capable of inducing apoptosis in normal human keratinocytes. To this purpose, keratinocytes were plated in chamber slides and cultured in serum-free medium (KGM) up to preconfluence. Cells were then cultured in keratinocyte basal medium and treated for 48 h with the addition of 25% serum from either untreated patients or patients treated with systemic corticosteroids. Sera from healthy subjects were used as controls. Apoptosis was evaluated by TUNEL staining in situ. Approximately 100 cells were evaluated, in randomly selected fields, and the percentage of TUNEL-positive cells was counted.
FasL is one of the major triggers of the caspase-8 activated extrinsic apoptotic pathway. Therefore, we wanted to evaluate whether this pathway plays a role in pemphigus apoptosis. To this purpose, patient sera were pretreated with anti-FasL neutralizing antibody or caspase-8 inhibitor, and added to keratinocyte cultures. Keratinocytes were cultured in KGM and treated with pemphigus sera or with sera from untreated patients. Sera were pretreated with anti-FasL neutralizing antibody (2.5 mg per ml for 30 min) or caspase-8 inhibitor Z-IETD-FMK (100 μM for 30 min). Apoptosis was evaluated by TUNEL staining.

keratinocytes [3] = assay: Treatment of keratinocytes with increasing amounts of FasL, Western blotting with anti-Dsg1 and anti-Dsg3; assay type: cell-based, human; conditions: FasL 0.1, 10, 100 ng/ml for 72 hrs; FIG. 9
Method: Protein extracts from the culture were analyzed by Western blotting using anti-Dsg1 and anti-Dsg3 antibodies. β-actin was used as internal control. These doses are consistent with the ones detected in pemphigus sera (FIG. 9).

Molecule	caspase-8 activation by untreated pemphigus sera (keratinocytes [1])	dsg cleavage by untreated pemphigus sera (keratinocytes [1])	cell detachment (i.e. acantholysis) by untreated pemphigus sera (keratinocytes [2])	pemphigus sera-induced keratinocyte apoptosis (TUNEL staining) (human keratinocytes)	cleavage of dsgs (Dsg1, Dsg3) by FasL (keratinocytes [3])
CC[C@H](C)[C@H](NC(=O)OCc1ccccc1)C(=O)N[C@@H](CCC(=O)OC)C(=O)N[C@H](C(=O)N[C@@H](CC(=O)OC)C(=O)CF)[C@@H](C)O [Z-IETD-FMK] (Cbz-IE(OMe)TD(OMe)-CH2F)	prevents both caspase-8 activation and dsg cleavage	prevents both caspase-8 activation and dsg cleavage	prevented	partially prevented	–
B1	–	–	–	–	cleaved dsgs in a dose-dependent manner
